Measurements published in publication PMC4481167, “The primary pathway for lactate oxidation in Desulfovibrio vulgaris” (Frontiers in Microbiology, 2015).

Molecular target: T1, PFOR (DVU3025, por) (Nitratidesulfovibrio vulgaris, UniProt Q726T1)
T1 construct: native, untagged; in-gel activity band from crude extract identified by LC-MS/MS; homo-octamer (cited)
Assay: in-gel activity stain (methyl viologen), band identified by LC-MS/MS
Type: biochemical
Conditions: 20 mM pyruvate, 0.1 mM CoA, 2 mM methyl viologen, 16 mM dithioerythritol, 50 mM Tris-HCl pH 8.5, anaerobic

T1 sequence (Q726T1 1-1215): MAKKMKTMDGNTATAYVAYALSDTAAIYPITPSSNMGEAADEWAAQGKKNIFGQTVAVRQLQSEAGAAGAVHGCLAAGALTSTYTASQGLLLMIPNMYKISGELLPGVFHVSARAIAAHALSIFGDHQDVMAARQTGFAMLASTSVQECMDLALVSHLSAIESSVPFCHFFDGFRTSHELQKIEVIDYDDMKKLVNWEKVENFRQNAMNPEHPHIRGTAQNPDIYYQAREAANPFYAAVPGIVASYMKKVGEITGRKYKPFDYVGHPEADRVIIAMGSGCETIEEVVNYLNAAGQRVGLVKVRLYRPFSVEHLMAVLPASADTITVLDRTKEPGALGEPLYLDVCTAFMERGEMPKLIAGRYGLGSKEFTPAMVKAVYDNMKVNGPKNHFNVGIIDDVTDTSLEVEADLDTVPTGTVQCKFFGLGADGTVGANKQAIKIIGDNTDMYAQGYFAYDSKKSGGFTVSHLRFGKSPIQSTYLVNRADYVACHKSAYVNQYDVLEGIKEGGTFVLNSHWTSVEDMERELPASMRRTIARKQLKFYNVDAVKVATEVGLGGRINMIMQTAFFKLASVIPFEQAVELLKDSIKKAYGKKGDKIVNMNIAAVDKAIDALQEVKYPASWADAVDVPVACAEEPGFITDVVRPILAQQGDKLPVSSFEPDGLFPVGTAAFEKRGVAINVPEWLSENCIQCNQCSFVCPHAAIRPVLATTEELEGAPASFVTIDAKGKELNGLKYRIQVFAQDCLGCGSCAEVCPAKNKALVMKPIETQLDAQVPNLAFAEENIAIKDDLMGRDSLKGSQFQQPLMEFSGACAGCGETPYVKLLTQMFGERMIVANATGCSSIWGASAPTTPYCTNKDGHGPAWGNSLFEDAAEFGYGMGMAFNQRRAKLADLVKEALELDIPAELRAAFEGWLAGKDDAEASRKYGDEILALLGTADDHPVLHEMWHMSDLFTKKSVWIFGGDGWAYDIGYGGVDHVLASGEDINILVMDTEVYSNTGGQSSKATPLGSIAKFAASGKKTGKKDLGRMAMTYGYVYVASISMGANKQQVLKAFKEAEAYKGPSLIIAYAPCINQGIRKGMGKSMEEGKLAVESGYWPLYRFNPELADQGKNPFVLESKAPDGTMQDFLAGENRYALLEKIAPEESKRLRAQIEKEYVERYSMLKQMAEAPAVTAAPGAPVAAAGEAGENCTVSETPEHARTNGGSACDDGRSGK

| Structure (SMILES) | in-gel activity stain (methyl viologen), band identified by LC-MS/MS |
| --- | --- |
| CC(C)(COP(=O)(O)OP(=O)(O)OC[C@H]1O[C@@H](n2cnc3c(N)ncnc32)[C@H](O)[C@@H]1OP(=O)(O)O)[C@@H](O)C(=O)NCCC(=O)NCCS [CoA] | Two bands were stained with methyl viologen in the presence of pyruvate and CoA |
| CC(=O)C(=O)O [pyruvate] | Two bands were stained with methyl viologen in the presence of pyruvate and CoA |
